According to patent US10246442B2, “4-Aminoquinazolin compounds as prolyl hydroxylase inhibitors” (JANSSEN PHARMACEUTICA NV, priority 2011, dated 2019):

Tests used:
PHD2181-417 = PHD2181-417 (Homo sapiens (Human), UniProt Q9GZT9); assay: PHD enzymatic assay ([14C]-succinic acid production); format: biochemical; details: purified PHD2181-417, HIF-1α peptide substrate, 30 min pre-incubation, average of results
Description: Expression and Purification of PHD2181-417
The human PHD2 expression construct containing amino acids 181-417 of GenBank Accession ID NM_022051 was cloned into a pBAD vector (Invitrogen), incorporating both an N-terminal histidine tag and a Smt3-tag, both of which are cleaved by Ulp1. Protein production was achieved by expression in BL21 cells grown in Terrific Broth containing 100 μg/ml ampicillin. Cell cultures were inoculated at 37° C. and grown to an OD600 of 0.8. Cultures were induced with 0.1% arabinose and grown overnight at 20° C. with continuous shaking at 225 rpm. Cells were then harvested by centrifugation and stored at −80° C. Cell pellets were suspended in Buffer A (50 mM Tris-HCl pH 7.2, 100 mM NaCl, 100 mM L-arginine, 1 mM TCEP, 0.05% (w/v) NP-40, 50 mM imidazole) followed by the addition of lysozyme and benzonase. Cells were lysed by sonication and the lysate was cleared by centrifugation (15,000 rpm, 90 min, 4° C.). The protein was purified by nickel affinity chromatography using a HisTrap Crude FF column (GE Healthcare). Samples were eluted in Buffer A with a 50-200 mM imidazole gradient. Cleavage of the Smt tag with Ulp1 protease was achieved via overnight incubation with dialyzing against Buffer A. The PHD2181-417 sample was then passed over a second HisTrap Crude FF column (GE Healthcare) to remove uncleaved protein. The flow-through was then dialyzed into 50 mM MES pH 6.0, 1 mM TCEP, 5 mM NaCl for ion exchange chromatography on a HiTrap SP Cation Exchange column (GE Healthcare). The PHD2181-417 protein was eluted with a 0-0.2 M NaCl gradient. Fractions were pooled for further purification by size exclusion chromatography over a Superdex 75 Size Exclusion Column (GE Healthcare). Final protein was concentrated to 4 mg/ml and dialyzed in 10 mM PIPES pH 7.0, 100 mM NaCl, 0.5 mM TCEP.
(10 μM, California Peptide Research Inc., Napa, Calif.), and [5-^14C]-2-oxoglutaric acid (50 mCi/mmol, Moravek Chemicals, Brea, Calif.) in reaction buffer (40 mM Tris-HCl, pH 7.5, 0.4 mg/ml catalase, 0.5 mM DTT, 1 mM ascorbate) for 10 minutes. Compounds were pre-incubated for 30 min before starting the reaction (all test compounds were dissolved at 10 mM in 100% DMSO (w/v) and were tested with final compound concentrations at 100 μM in 1% DMSO (w/v)). The reaction was stopped by addition of 50 μl of 70 mM H3PO4 and 50 μl of 500 mM NaH2PO4, pH 3.2. Detection of [^14C]-succinic acid was achieved by separating from [5-^14C]-2-oxoglutaric acid by incubating the reaction mixture with 100 μl of 0.16 M DNP prepared in 30% perchloric acid. Next, 50 μl of unlabeled 20 mM 2-oxoglutaric acid/20 mM succinic acid, serving as carrier for the radioactivity, was added to the mixture, and was allowed to proceed for 30 minutes at room temperature. The reaction was then incubated with 50 μl of 1 M 2-oxoglutaric acid for 30 additional minutes at room temperature to precipitate the excess DNP. The reaction was then centrifuged at 2800×g for 10 minutes at room temperature to separate [^14C]-succinic acid in the supernatant from the precipitated [^14C]-dinitrophenylhydrazone. Fractions of the supernatant (400 μI) were counted using a beta counter (Beckman Coulter, Fullerton, Calif.). Inhibition of PHD2181-417 activity was measured as a decrease in succinic acid production. The IC50 values were estimated by fitting the data to a three-parameter logistic function using GraphPad Prism, version 4.02 (Graph Pad Software, San Diego, Calif.).

[1] = test system: Erythropoietin secretion, Hep-3B cells; assay: Cellular assay: EPO secretion in Hep-3B cells; format: cell-based; details: Homo sapiens, Hep3B, 100 μM compound, 24 hours, percent of EPO secretion relative to assay control compound 7-[(4-Chloro-phenyl)-(5-methyl-isoxazol-3-ylamino)-methyl]-quinolin-8-ol, read-out: Cellular % EPO Stimulation
Description: Hep-3B cells (ATCC, Manassas, Va.) were plated in 96-well plates at 20,000 cells per well in 100 μl of DMEM containing 10% fetal bovine serum, 1% non-essential amino acids, 50 IU/mL of penicillin and 50 μg/mL of streptomycin (all cell culture reagents from Invitrogen, Carlsbad, Calif.). Twenty-four hours after plating, compounds were added and incubated for an additional 24 hours. All compounds were tested with final compound concentrations at 100 μM. Fifty microliters of the supernatant was then transferred to a human Hypoxia assay kit (Meso-Scale Discovery, Gaithersburg, Md.). Erythropoietin in the supernatant was detected according to the manufacturer's instructions as follows. EPO detection plates were blocked with 3% BSA in PBS overnight and 50 μl of the supernatant was incubated at room temperature in an orbital shaker for 2 h. Twenty-five microliters of 0.5 μg/ml anti-EPO detection antibody was added for 2 hours at room temperature in an orbital shaker. After 3 washes in PBS, 150 μl of 1× read buffer is added and the plate is then read on the MSD SECTOR instrument. Data was analyzed by determining the percent of EPO secretion in the presence of 100 μM compound relative to an assay control compound, 7-[(4-Chloro-phenyl)-(5-methyl-isoxazol-3-ylamino)-methyl]-quinolin-8-ol.

Sequence of PHD2181-417 (Q9GZT9 181-417): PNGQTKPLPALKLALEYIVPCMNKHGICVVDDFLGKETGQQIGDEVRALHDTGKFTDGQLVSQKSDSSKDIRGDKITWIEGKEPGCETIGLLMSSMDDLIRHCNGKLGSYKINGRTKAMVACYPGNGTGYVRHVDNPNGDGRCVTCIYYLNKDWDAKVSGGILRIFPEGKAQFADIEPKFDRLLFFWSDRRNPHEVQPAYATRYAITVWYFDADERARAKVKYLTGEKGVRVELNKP

Row | IC50 (PHD2181-417; read-out: Enzyme pIC50 (converted)) [nM] | Enzyme pIC50 (PHD2181-417) | Structure (SMILES) | activation at 100 µM [1] [%]
1 | 79.4 |  | COCC(C)Nc1nc(-n2cc(C(=O)O)cn2)nc2cc(F)c(Oc3c(C)cccc3C)cc12 (racemic) [Example 9, (rac)-1-[6-(2,6-Dimethyl-phenoxy)-7-fluoro-4-(2-methoxy-1-methyl-ethylamino)-quinazolin-2-yl]-1H-pyrazole-4-carboxylic acid] | 86
2 |  |  | Cc1cccc(C)c1Oc1cc2c(N)nc(-n3cc(C(=O)O)cn3)nc2cc1F [Example 1, 1-[4-Amino-6-(2,6-dimethyl-phenoxy)-7-fluoro-quinazolin-2-yl]-1H-pyrazole-4-carboxylic acid] | 51
3 |  | 7.2 | CNc1nc(-n2cc(C(=O)O)cn2)nc2cc(F)c(Oc3c(C)cccc3C)cc12 [Example 2, 1-[6-(2,6-Dimethyl-phenoxy)-7-fluoro-4-methylamino-quinazolin-2-yl]-1H-pyrazole-4-carboxylic acid] | 10
4 |  |  | Cc1cccc(C)c1Oc1cc2c(N(C)C)nc(-n3cc(C(=O)O)cn3)nc2cc1F [Example 3, 1-[4-Dimethylamino-6-(2,6-dimethyl-phenoxy)-7-fluoro-quinazolin-2-yl]-1H-pyrazole-4-carboxylic acid] | 68
5 |  | 6.9 | Cc1cccc(C)c1Oc1cc2c(N3CCCCC3)nc(-n3cc(C(=O)O)cn3)nc2cc1F [Example 4, 1-[6-(2,6-Dimethyl-phenoxy)-7-fluoro-4-piperidin-1-yl-quinazolin-2-yl]-1H-pyrazole-4-carboxylic acid] | 17
6 |  | 7.4 | Cc1cccc(C)c1Oc1cc2c(N3CCCC3)nc(-n3cc(C(=O)O)cn3)nc2cc1F [Example 5, 1-[6-(2,6-Dimethyl-phenoxy)-7-fluoro-4-pyrrolidin-1-yl-quinazolin-2-yl]-1H-pyrazole-4-carboxylic acid] | 25
7 |  | 7.4 | Cc1cccc(C)c1Oc1cc2c(Nc3ccccc3)nc(-n3cc(C(=O)O)cn3)nc2cc1F [Example 6, 1-[6-(2,6-Dimethyl-phenoxy)-7-fluoro-4-phenylamino-quinazolin-2-yl]-1H-pyrazole-4-carboxylic acid] | 22
8 |  |  | Cc1cccc(C)c1Oc1cc2c(Nc3ccccc3Cl)nc(-n3cc(C(=O)O)cn3)nc2cc1F [Example 7, 1-[4-(2-Chloro-phenylamino)-6-(2,6-dimethyl-phenoxy)-7-fluoro-quinazolin-2-yl]-1H-pyrazole-4-carboxylic acid] | 13
9 |  | 7.2 | CCCNc1nc(-n2cc(C(=O)O)cn2)nc2cc(F)c(Oc3c(C)cccc3C)cc12 [Example 8, 1-[6-(2,6-Dimethyl-phenoxy)-7-fluoro-4-propylamino-quinazolin-2-yl]-1H-pyrazole-4-carboxylic acid] | 59
10 |  | 5.9 | CCN(CC)CCNc1nc(-n2cc(C(=O)O)cn2)nc2cc(F)c(Oc3c(C)cccc3C)cc12 [Example 10, 1-[4-(2-Diethylamino-ethylamino)-6-(2,6-dimethyl-phenoxy)-7-fluoro-quinazolin-2-yl]-1H-pyrazole-4-carboxylic acid] | 13
11 |  |  | Cc1cccc(C)c1Oc1cc2c(NCC3CC3)nc(-n3cc(C(=O)O)cn3)nc2cc1F [Example 15, 1-((4-Cyclopropanemethylamino)-6-(2,6-dimethylphenoxy)-7-fluoroquinazolin-2-yl)-1H-pyrazole-4-carboxylic acid] | 64
12 |  |  | Cc1cccc(C)c1CNc1nc(-n2cc(C(=O)O)cn2)nc2ccc(C3CCCCC3)cc12 [Example 23, 1-[6-Cyclohexyl-4-(2,6-dimethyl-benzylamino)-quinazolin-2-yl]-1H-pyrazole-4-carboxylic acid] | 7
13 |  | 7.5 | CCN(CC)c1nc(-n2cc(C(=O)O)cn2)nc2cc(Cl)c(OC3CCCCC3)cc12 [Example 138, 1-(7-chloro-6-(cyclohexyloxy)-4-(diethylamino)quinazolin-2-yl)-1H-pyrazole-4-carboxylic acid] | 
14 |  | 7.1 | O=C(O)c1cnn(-c2nc(N3CCCC3)c3cc(OC4CCCCC4)c(Cl)cc3n2)c1 [Example 139, 1-(7-chloro-6-(cyclohexyloxy)-4-(pyrrolidin-1-yl)quinazolin-2-yl)-1H-pyrazole-4-carboxylic acid] | 
15 |  | 7.0 | O=C(O)c1cnn(-c2nc(NC3CC3)c3cc(OC4CCCCC4)c(Cl)cc3n2)c1 [Example 141, 1-(7-chloro-6-(cyclohexyloxy)-4-(cyclopropylamino)quinazolin-2-yl)-1H-pyrazole-4-carboxylic acid] | 
16 |  |  | CCN(CC)c1nc(-n2cc(C(=O)O)cn2)nc2ccc(OC3CCCCC3)cc12 [Example 174, 1-(6-(cyclohexyloxy)-4-(diethylamino)quinazolin-2-yl)-1H-pyrazole-4-carboxylic acid] | 35
17 |  |  | O=C(O)c1cnn(-c2nc(N3CCCC3)c3cc(OC4CCCCC4)ccc3n2)c1 [Example 175, 1-(6-(cyclohexyloxy)-4-(pyrrolidin-1-yl)quinazolin-2-yl)-1H-pyrazole-4-carboxylic acid] | 46
18 |  | 6.5 | O=C(O)c1cnn(-c2nc(N3CCOCC3)c3cc(Cc4ccccc4)ccc3n2)c1 [Example 178, 1-(6-benzyl-4-morpholinoquinazolin-2-yl)-1H-pyrazole-4-carboxylic acid] | 
19 |  | 7.1 | CN(C)c1nc(-n2cc(C(=O)O)cn2)nc2ccc(Cc3ccccc3)cc12 [Example 179, 1-(6-benzyl-4-(dimethylamino)quinazolin-2-yl)-1H-pyrazole-4-carboxylic acid] | 
20 |  | 7.1 | CCN(CC)c1nc(-n2cc(C(=O)O)cn2)nc2ccc(Cc3ccccc3)cc12 [Example 180, 1-(6-benzyl-4-(diethylamino)quinazolin-2-yl)-1H-pyrazole-4-carboxylic acid] | 
21 |  | 7.1 | O=C(O)c1cnn(-c2nc(N3CCCC3)c3cc(Cc4ccccc4)ccc3n2)c1 [Example 181, 1-(6-benzyl-4-(pyrrolidin-1-yl)quinazolin-2-yl)-1H-pyrazole-4-carboxylic acid] | 
22 |  | 7.1 | O=C(O)c1cnn(-c2nc(NC3CC3)c3cc(Cc4ccccc4)ccc3n2)c1 [Example 182, 1-(6-benzyl-4-(cyclopropylamino)quinazolin-2-yl)-1H-pyrazole-4-carboxylic acid] | 
23 |  | 7.2 | CCN(C)c1nc(-n2cc(C(=O)O)cn2)nc2ccc(Cc3ccccc3)cc12 [Example 183, 1-(6-benzyl-4-(ethyl(methyl)amino)quinazolin-2-yl)-1H-pyrazole-4-carboxylic acid] | 
